Results as given in publication PMC11285948, “The effects of CYP2B6 inactivators on the metabolism of ciprofol” (PLOS ONE, 2024).
“And” between values parts separate entries of the source, which are not always exact repeats. Equal values may be shown once.

Legend:
SD rats = test: Duration of loss of righting reflex (LORR) after ciprofol injection in rats; assay type: in vivo, rat; details: psoralen 27 mg·kg^-1 or clopidogrel 7.5 mg·kg^-1 gavage daily 7 d, then ciprofol 2.4 mg·kg^-1 i.v.
Experimental: Twenty-four SD rats were randomly and equally divided into three groups: the control group, psoralen group and clopidogrel group. The administration scheme was as follows: the control group received 0.5% carboxy methyl cellulose by gavage (1 mL·200 g^-1), the psoralen group received 27 mg·kg^-1 psoralen by gavage, and the clopidogrel group was gavaged with 7.5 mg·kg^-1 clopidogrel. […] All rats were treated once daily for seven days. Each rat was injected with 2.4 mg·kg^-1 ciprofol via the tail vein 12 h after the end of dosing on Day 7. Rats that received ciprofol injection were placed on a flat and soft insulation pad. Timekeeping began when the rats were in the supine position and lost the righting reflex and ended when the rats could turn to the prone position successfully. The duration of loss of righting reflex (LORR) in each rat was measured. During this period, approximately 300 μL of blood was collected from the inner canthus at 2, 4, 8, 12, 16, 20, 30, 45, and 60 min after ciprofol administration, and the plasma was separated. The plasma was processed and measured as described in Section 2.4.3, and DAS 2.0 software and a noncompartmental model were used to analyse the pharmacokinetic parameters.
IBM SPSS Statistics 27 software was used to analyse the main pharmacokinetic parameters, and GraphPad Prism 8.0.2 software was used for graphical visualization. […]

[1] = test system: recombinant human CYP2B6 enzyme; details: cited from earlier work; for inhibition of recombinant human CYP2B6 enzyme activity: psoralen: ref Ji et al. 13, clopidogrel (bupropion as substrate): ref 31, 32
[2] = test system: ciprofol metabolism in rat liver microsomes (RLMs); test: Effects of psoralen and clopidogrel on ciprofol metabolism in RLM incubation system (substrate elimination, HPLC-MS/MS); assay type: in vitro ADME; details: for IC50: 10 min preincubation, n = 3; for Relative residual activity (ciprofol metabolism): samples 1-3 and Mean; for degree of inhibitory effect on ciprofol metabolism: grading after ref 23
Experimental: (§1) The volume of the incubation system was 200 μL and included 2 μL of substrate (ciprofol), 8 μL of rat liver microsomes (RLMs) or 6 μL of human liver microsomes (HLMs), 12 μL of NADPH generation system of solution (solution A 10 μL, solution B 2 μL), and the remaining volume was PBS. The incubation was performed in a water bath at a constant temperature of 37°C, and each sample was incubated three times in parallel.
(§2) The incubation system was removed from the water bath, and the reaction was terminated immediately by adding 800 μL of reaction termination solution (acetonitrile solution containing 5 μg·mL^-1 D6-ciprofol at 4°C). The mixture was vortexed for 2 min and centrifuged for 15 min, after which the supernatant was transferred to an autosampler vial for HPLC-MS/MS detection.
(§3) The incubation system was prepared according to the optimal incubation conditions, and different concentrations of psoralen or clopidogrel solution were added to the blank incubation system at concentrations of 0, 5, 12.5, 25, 50, 75, 100, 150, and 200 μmol·L^-1 and 0, 0.2, 0.5, 1, 2, 5, 10, 25, and 50 μmol·L^-1, respectively. The incubation system was preincubated in a water bath (37°C) for 10 min, and ciprofol was added to the system and subsequently incubated subsequently. The effects of psoralen and clopidogrel on the metabolism of ciprofol were investigated based on ΔC.
(§4) The substrate elimination method was employed in this study, and GraphPad Prism 8.0.2 software was used for statistical processing, including determination of the kinetic parameters of ciprofol metabolism and the IC50 values of psoralen and clopidogrel for ciprofol metabolism. The maximum velocity (Vmax), Michaelis constant (Km) and intrinsic clearance (CLint) were calculated using the […]: V=Vmax×[S]/Km+[S] CLint=Vmax/Km

[3] = test system: ciprofol metabolism in human liver microsomes (HLMs); test: Effects of psoralen and clopidogrel on ciprofol metabolism in HLM incubation system (substrate elimination, HPLC-MS/MS); assay type: in vitro ADME; details: for IC50: 10 min preincubation, n = 3; for Relative residual activity (ciprofol metabolism): samples 1-3 and Mean; for degree of inhibitory effect on ciprofol metabolism: grading after ref 23
Experimental: as §1, §2, §3, §4

ciprofol metabolism = test system: ciprofol metabolism; parameters: method as in PMID 37309663; details: clinical trials NCT03758469, NCT04145583, NCT05181007; cited from earlier work

In the case of `COC(=O)[C@H](c1ccccc1Cl)N1CCc2sccc2C1` [clopidogrel], the “prolongation of duration of LORR compared with control group” value (SD rats) is listed as 23.0%, the “inhibition of recombinant human CYP2B6 enzyme activity” value [1] is listed as “strongly inhibits” and the “inactivation potency relative to its thiolactone metabolite” value ([1]; recombinant human CYP2B6, bupropion as substrate) is listed as 11 times. For the same molecule, the IC50 [2] was 6.38 µM, the “Relative residual activity (ciprofol metabolism)” value (shortened to “Relative residual activity”) ([2]; Cclopidogrel 0.20 μM) was 96.32% and 84.60% and 95.79% and the “Relative residual activity” value ([2]; Cclopidogrel 0.50 μM) was 90.44% and 83.76% and 96.63%. For the same molecule, the “Relative residual activity” value ([2]; Cclopidogrel 1.00 μM) was 88.66% and 86.92% and 76.64%, the “Relative residual activity” value ([2]; Cclopidogrel 2.00 μM) was 75.16% and 58.26% and 69.88% and the “Relative residual activity” value ([2]; Cclopidogrel 5.00 μM) was 50.35% and 43.15% and 60.40%. The “Relative residual activity” value ([2]; Cclopidogrel 10.00 μM) was 42.20% and 50.96% and 39.90%, the “Relative residual activity” value ([2]; Cclopidogrel 25.00 μM) was 32.17% and 28.83% and 23.03% and the “Relative residual activity” value ([2]; Cclopidogrel 50.00 μM) was 11.08% and 18.95% and 13.85%. For the same molecule, the “degree of inhibitory effect on ciprofol metabolism” value (shortened to “degree of inhibitory effect”) [2] was “moderate inhibitory effects”, the IC50 [3] was 2.56 µM and the “Relative residual activity” value ([3]; Cclopidogrel 0.20 μM) was 88.53% and 84.40% and 91.91%. The “Relative residual activity” value ([3]; Cclopidogrel 0.50 μM) was 70.42% and 76.69% and 80.24%, the “Relative residual activity” value ([3]; Cclopidogrel 1.00 μM) was 66.15% and 57.16% and 70.67% and the “Relative residual activity” value ([3]; Cclopidogrel 2.00 μM) was 58.07% and 44.78% and 46.16%. The “Relative residual activity” value ([3]; Cclopidogrel 5.00 μM) was 36.69% and 31.97% and 37.99%, the “Relative residual activity” value ([3]; Cclopidogrel 10.00 μM) was 32.45% and 25.93% and 29.26% and the “Relative residual activity” value ([3]; Cclopidogrel 25.00 μM) was 23.23% and 27.69% and 23.00%. The “Relative residual activity” value ([3]; Cclopidogrel 50.00 μM) was 19.78% and 11.54% and 13.21% and the “degree of inhibitory effect” value [3] was “moderate inhibitory effects”.

For `Cc1cccc(Nc2ccccc2C(=O)O)c1C` [mefenamic acid], the “clinical effect on ciprofol metabolism” value (ciprofol metabolism) is listed as “no clinical effect”.

For `O=c1ccc2cc3ccoc3cc2o1` [psoralen], the “prolongation of duration of LORR compared with control group” value (SD rats) is given as 16.1%, the “inhibition of recombinant human CYP2B6 enzyme activity” value [1] is given as “moderately inhibit” and the IC50 [2] is given as 63.3 µM. For the same molecule, the “Relative residual activity” value ([2]; Cpsoralen 5 μM) was 93.09% and 97.46% and 90.99%, the “Relative residual activity” value ([2]; Cpsoralen 5 μM, mean) was 93.85% and the “Relative residual activity” value ([2]; Cpsoralen 12.5 μM) was 88.25% and 94.23% and 84.23%. For the same molecule, the “Relative residual activity” value ([2]; Cpsoralen 12.5 μM, mean) was 88.90%, the “Relative residual activity” value ([2]; Cpsoralen 25 μM) was 79.18% and 75.1% and 87.55% and the “Relative residual activity” value ([2]; Cpsoralen 25 μM, mean) was 80.61%. For the same molecule, the “Relative residual activity” value ([2]; Cpsoralen 50 μM) was 57.26% and 67.87% and 65.65%, the “Relative residual activity” value ([2]; Cpsoralen 50 μM, mean) was 63.59% and the “Relative residual activity” value ([2]; Cpsoralen 75 μM) was 32.92% and 44.27% and 51.97%. For the same molecule, the “Relative residual activity” value ([2]; Cpsoralen 75 μM, mean) was 43.05%, the “Relative residual activity” value ([2]; Cpsoralen 100 μM) was 29.87% and 38.51% and 22.31% and the “Relative residual activity” value ([2]; Cpsoralen 100 μM, mean) was 30.23%. The “Relative residual activity” value ([2]; Cpsoralen 150 μM) was 15.05% and 20.24% and 25.14%, the “Relative residual activity” value ([2]; Cpsoralen 150 μM, mean) was 20.14% and the “Relative residual activity” value ([2]; Cpsoralen 200 μM) was 14.67% and 20.19% and 12.3%. For the same molecule, the “Relative residual activity” value ([2]; Cpsoralen 200 μM, mean) was 15.72%, the “degree of inhibitory effect” value [2] was “mild inhibitory effects” and the IC50 [3] was 34 µM. The “Relative residual activity” value ([3]; Cpsoralen 5 μM) was 85.57% and 90.39% and 83.88%, the “Relative residual activity” value ([3]; Cpsoralen 5 μM, mean) was 86.61% and the “Relative residual activity” value ([3]; Cpsoralen 12.5 μM) was 76.45% and 75.70% and 82.09%. The “Relative residual activity” value ([3]; Cpsoralen 12.5 μM, mean) was 78.08%, the “Relative residual activity” value ([3]; Cpsoralen 25 μM) was 55.36% and 59.73% and 68.81% and the “Relative residual activity” value ([3]; Cpsoralen 25 μM, mean) was 61.30%. For the same molecule, the “Relative residual activity” value ([3]; Cpsoralen 50 μM) was 40.24% and 31.49% and 40.07%, the “Relative residual activity” value ([3]; Cpsoralen 50 μM, mean) was 37.27% and the “Relative residual activity” value ([3]; Cpsoralen 75 μM) was 32.40% and 26.96% and 29.47%. The “Relative residual activity” value ([3]; Cpsoralen 75 μM, mean) was 29.61%, the “Relative residual activity” value ([3]; Cpsoralen 100 μM) was 17.05% and 23.45% and 21.45% and the “Relative residual activity” value ([3]; Cpsoralen 100 μM, mean) was 20.65%. The “Relative residual activity” value ([3]; Cpsoralen 200 μM) was 6.19% and 12.50% and 10.40%, the “Relative residual activity” value ([3]; Cpsoralen 200 μM, mean) was 9.70% and the “degree of inhibitory effect” value [3] was “mild inhibitory effects”.

For `CO[C@H]1/C=C/O[C@@]2(C)Oc3c(C)c(O)c4c(O)c(c(/C=N/N5CCN(C)CC5)c(O)c4c3C2=O)NC(=O)/C(C)=C\C=C\[C@H](C)[C@H](O)[C@@H](C)[C@@H](O)[C@@H](C)[C@H](OC(C)=O)[C@@H]1C` [rifampicin], the “clinical effect on ciprofol metabolism” value (ciprofol metabolism) is listed as “no clinical effect”.
